# Experimental data: patent US7388096B2, “Crystalline forms of a factor Xa inhibitor” (Bristol-Myers Squibb Company, priority 2004, dated 2008)
# Entries after “also recorded” stand apart in the source; their conditions may differ.
# Key:
# Assay type in all cases: physicochemical
# [1] = moisture sorption and desorption study; settings: for hygroscopicity (in words): moisture sorption and desorption study
# Description: (§1) SSNMR and XRPD indexing studies have proven that Form N-3 is a single phase. No significant weight loss was observed up to about 250° C. in TGA analysis. […] Form N-3 has the tendency to form small primary particles (<10 μm) of the shape of needles or rods.
# (§2) P-1 is a desolvated phase obtained by drying the initial material (potential solvates) crystallized from the reaction mixture. P-1 has never been observed in slurry, and therefore there is no evidence to support assignment of P-1 as a single and neat phase that is crystallized directly from the reaction mixture. […] P-1 can also convert to Form N-2 upon heating at 230° C. in solid state.
# [2] = accelerated stability studies (physical stability, XRPD of stressed samples); settings: for physical stability in accelerated stability studies: 40° C./75% RH/Open/4 Weeks and 50° C./Closed/4 Weeks
# Description: as §1
# Form N-1 undergoes a solid-state transition at about 90° C. as evidenced by hot-stage microscopy studies and converts to Form N-2 at about 90° C. which is confirmed by […] studies. Thermal analysis by DSC (FIG. 8) and TGA show a small exotherm at about 113° C., which is attributed to the solid-state transition to Form N-2, followed by a melting endotherm at about 255 to about 259° C. similar to the melting range for Form N-2.
# as §2
# [3] = form conversion in slurry / relative thermodynamic stability of polymorphs
# Description: as §1, §2
# A Good Laboratory Practice batch (˜550 g) of Form N-3 has been manufactured successfully by converting P-1 material using a slurry method in acetone at about 50° C. Acetone slurries of Form P-1 spiked at about 50° C. with 1% water still yield Form N-3, but the slurries spiked with 5% and 10% water result in P-3 (solvated) material. […] The hemi sec BuOH solvate, form 0.5SBU-4, converts to form N-2 upon heating. […] Form N-1 also undergoes a solid state transition to Form N-2 upon heating at about 90 to 130° C. In addition, P-1 converts to potential solvate/hydrate forms by slurrying in different solvent systems, e.g., MeOH/EtOAc, DMF/H2O, DMSO/H2O, NMP/H2O at room temperature or at about 50° C.
structure (smiles),measurement,setting,value
"NC(=O)c1nn(-c2cccc(Cl)c2)c2c1CCN(c1ccc(-n3ccccc3=O)cc1)C2=O [Form N-2, 1-(3-chlorophenyl)-7-oxo-6-[4-(2-oxo-1(2H)pyridinyl)phenyl]-4,5,6,7-tetrahydro-1H-pyrazolo[3,4-c]pyridine-3-carboxamide]",moisture adsorption,[1]; at 90% RH at 25° C.,~1.2%
same,hygroscopicity (in words),[1],nonhygroscopic
same,physical stability in stability study,[2]; 40° C./75% RH/Open for 5 Weeks and 50° C./Closed for 4 Weeks,physically stable
same,relative thermodynamic stability of polymorphs,[3]; 25° C. to 60° C.,thermodynamically less stable than polymorph N-3
same,form conversion in slurry,[3]; slurry at 25 and 60° C.,converts to N-3
same,form conversion in slurry,[3]; slurry in acetone at RT or about 50° C.,converts to Form N-3 readily
"NC(=O)c1nn(-c2cccc(Cl)c2)c2c1CCN(c1ccc(-n3ccccc3=O)cc1)C2=O [Form N-3, 1-(3-chlorophenyl)-7-oxo-6-[4-(2-oxo-1(2H)pyridinyl)phenyl]-4,5,6,7-tetrahydro-1H-pyrazolo[3,4-c]pyridine-3-carboxamide]",hygroscopicity (in words),[1],nonhygroscopic; also recorded: non-hygroscopic
same,hysteresis in moisture sorption/desorption,[1]; up to 95% RH at 25° C.,no hysteresis was observed
same,moisture sorption,[1]; up to 95% RH at 25° C.,0.4%
same,physical stability in accelerated stability studies,[2],physically stable
same,relative thermodynamic stability of polymorphs,[3]; 25° C. to 60° C.,thermodynamically more stable than polymorphs N-1 and N-2
same,relative thermodynamic stability of polymorphs,"[3]; room temperature to 60° C., from slurry conversions",thermodynamically more stable polymorph
"NC(=O)c1nn(-c2cccc(Cl)c2)c2c1CCN(c1ccc(-n3ccccc3=O)cc1)C2=O [Form P-1, 1-(3-chlorophenyl)-7-oxo-6-[4-(2-oxo-1(2H)pyridinyl)phenyl]-4,5,6,7-tetrahydro-1H-pyrazolo[3,4-c]pyridine-3-carboxamide]",hygroscopicity (in words),[1],hygroscopic
same,weight gain on adsorption,[1]; to 90% RH,~16%
same,physical stability in accelerated stability studies (XRPD assay),"[2]; stressed for 3 weeks, 40° C./75% RH/Open",physically unstable
same,form conversion in solvents,"[3]; in solvents (e.g., acetone)",converts to Form N-3
same,form conversion in slurry,"[3]; slurry in different solvents (e.g., acetone, ACN, DMSO/MTBE) at about 50° C.",converts to Form N-3
"NC(=O)c1nn(-c2cccc(Cl)c2)c2c1CCN(c1ccc(-n3ccccc3=O)cc1)C2=O [Form N-1, 1-(3-chlorophenyl)-7-oxo-6-[4-(2-oxo-1(2H)pyridinyl)phenyl]-4,5,6,7-tetrahydro-1H-pyrazolo[3,4-c]pyridine-3-carboxamide]",physical stability in accelerated stability studies,[2],physically unstable
same,form conversion in slurry,[3]; slurry in acetone,converts to N-3 readily
